Key:
[1] = Pharmacokinetic study in mice; format: in vivo; conditions: mouse, 10 mg/kg, PO (10 mpk), male ICR (CD-1) mice, plasma
Protocol: Experimental Example 3: Pharmacokinetic study in mice
Purpose of the experiment: To investigate the plasma pharmacokinetics in male ICR (CD-1) mice after single intravenous administration and gavage administration of the compounds of the present disclosure.
Experimental animals: Male ICR (CD-1) mice, body weight 32-35 g; supplier: Vital River Laboratory Animal Technology Co., Ltd.
Experimental procedures: Intravenous Administration (IV); Oral Gavage (PO); the dose was 10 mg/kg (vehicle: water (containing 0.5% methylcellulose (w/v) and 0.5% Tween 80 (v/v)).
Sample collection: At each set time point, 40 µL of blood was collected from the orbital sinus of the experimental animals. Whole blood samples were placed in anticoagulant tubes containing EDTA-K2. The whole blood samples were centrifuged at 1500 g for 10 min to separate plasma. The upper-layer plasma samples were collected into sample tubes for LC-MS/MS analysis.
Data analysis: Plasma concentrations were processed using the non-compartmental model in WinNonlin™Version6.3 (Pharsight, Mountain View, CA) pharmacokinetic software. Pharmacokinetic parameters Cl, T1/2, Cmax, and AUC0-24 were calculated using the linear-log trapezoidal method, and the results were shown in the table below. Table 3. Results of the pharmacokinetic study

[2] = target: T1, human complement factor B (Homo sapiens, UniProt P00751); test: TR-FRET competitive binding assay of human complement factor B (Cy5-labeled probe); conditions: inhibitory activity against complement factor B; biotin-labeled factor B 25 nM, Cy5 probe 75 nM, 4 °C
T1 construct: purchased ComplementTech A135
T1 sequence (P00751 26-764): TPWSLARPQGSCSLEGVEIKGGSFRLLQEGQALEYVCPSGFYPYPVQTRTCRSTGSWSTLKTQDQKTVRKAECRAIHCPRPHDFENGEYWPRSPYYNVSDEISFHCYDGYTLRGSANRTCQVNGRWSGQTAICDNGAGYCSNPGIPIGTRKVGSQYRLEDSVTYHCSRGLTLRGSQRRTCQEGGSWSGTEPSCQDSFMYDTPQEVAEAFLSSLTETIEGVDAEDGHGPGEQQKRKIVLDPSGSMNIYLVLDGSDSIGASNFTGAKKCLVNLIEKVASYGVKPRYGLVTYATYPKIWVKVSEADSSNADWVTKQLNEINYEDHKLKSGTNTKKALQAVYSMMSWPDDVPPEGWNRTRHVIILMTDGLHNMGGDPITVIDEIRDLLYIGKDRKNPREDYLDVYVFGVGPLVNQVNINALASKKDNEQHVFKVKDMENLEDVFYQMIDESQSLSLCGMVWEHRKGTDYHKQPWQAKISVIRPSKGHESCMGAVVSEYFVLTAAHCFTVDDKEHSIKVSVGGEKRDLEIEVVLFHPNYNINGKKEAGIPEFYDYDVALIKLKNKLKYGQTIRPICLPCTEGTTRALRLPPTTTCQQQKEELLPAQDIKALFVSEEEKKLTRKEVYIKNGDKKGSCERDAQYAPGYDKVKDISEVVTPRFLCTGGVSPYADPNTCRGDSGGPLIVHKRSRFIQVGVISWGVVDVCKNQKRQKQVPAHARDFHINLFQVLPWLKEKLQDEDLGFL

[3] = system: collagen antibody and lipopolysaccharide-induced arthritis (CAIA); test: Pharmacodynamic study in the mouse CAIA model (Experimental Example 5); format: in vivo, BALB/c mice; conditions: Mean; 20mg/kg bid oral, Day0-Day14; larger AUC = greater severity
Protocol: Experimental Animals: BALB/c mice, male, 6-8 weeks, 18-20 g; Supplier: Shanghai Jihui Laboratory Animal Care Co., Ltd 1. Induction of the mouse CAIA model: On Day 0, all mice were intravenously injected via the tail vein with 0.15 mL of Arthrogen-CIA 5-clone mixed type II collagen antibody (10 mg/mL, Chondrex). […] 2. Administration: Table 7. Administration groups and administration schemes [table] The experimental data are expressed as mean±standard error (mean ± S.E.M.). The data were analyzed by One-way ANOVA/Dunnett's using Graphpad Prism and by Repeat Measurement ANOVA/Bonferroni using SPSS. P< 0.05 was considered to indicate a significant difference. Arthritis scoring: Starting from the day of modeling, the incidence of arthritis in the limbs of the animals in each group was observed three times a week until the end of the experiment. According to the different degrees of lesions (erythema and swelling), the scoring was carried out according to the standard of 0-4 points. […] The larger the AUC, the greater the severity of arthritis was. […] Arthritis score AUC

[4] = system: alternative complement pathway in human serum; test: Complement deposition assay of serum alternative pathway (Wieslab Complement system Alternative pathway kit); format: biochemical; conditions: human serum diluted 18-fold, 37 °C 60 minutes, absorbance 405 nm
Protocol: The Wieslab® Complement system Alternative pathway kit (WIESLAB® Complement system Alternative pathway AP330 RUO) was used to detect the inhibitory activity of the compounds on the alternative complement pathway in human serum. Human serum was diluted 18-fold with the kit diluent. The diluted serum was added to a 96-well plate at 130 µL/well. Using a compound titrator (Tecan, D300e), test compounds at corresponding concentrations were added. The test concentration of the compounds started at 10 µM, with 3-fold serial dilution for 6 concentration points, detected in single wells. The DMSO ratio was uniformly adjusted to 0.1% using DMSO in all drug-treated wells. In the positive control wells, 0.1% DMSO and 130 µL of diluted serum were added; in the negative control wells, 0.1% DMSO and 130 µL of the kit diluent were added. The mixtures were pre-incubated at room temperature for 15 min. The incubated mixtures were transferred to the 96-well plate provided by the kit at 100 µL per well, incubated at 37 °C for 60 minutes, and the liquid in the wells was discarded. 300 µL of the washing solution in the kit was added to each well. The wells were washed three times. 100 µL of the conjugated antibody Conjugate in the kit was added to each well, and it was incubated at room temperature for 30 minutes. The liquid in the wells was removed. 300 µL of the washing solution in the kit was added to each well and the wells were washed three times. 100 µL of the substrate solution was added to each well and incubated at room temperature for 30 minutes. […] Table 2. Results of complement deposition in serum alternative pathway

[5] = system: collagen antibody and lipopolysaccharide-induced arthritis (CAIA); test: Collagen antibody-induced mouse arthritis model (Experimental Example 4); format: in vivo, BALB/c mice; conditions: Mean, 20 mg/kg oral twice a day
Protocol: Experimental animals: BALB/c mice, male, 6-8 weeks, 18-20 g; supplier: Beijing Vital River Laboratory Animal Technology Co., Ltd. 1. […] 2. Administration: Table 4. Administration groups and administration schemes [table] The data were analyzed by One-way ANOVA/Dunnett's using Graphpad Prism and by Repeat Measurement ANOVA/Bonferroni using SPSS. P< 0.05 was considered to indicate a significant difference. Arthritis scoring: Starting from the day of modeling, the incidence of arthritis in the limbs of the animals in each group was observed three times a week until the end of the experiment. According to the different degrees of lesions (erythema and swelling), the scoring was carried out according to the standard of 0-4 points. […] Joint swelling: Starting from the day of modeling, the thickness of the left and right foot pads of the animals was measured three times a week using a micrometer (Mitutoyo, 0-25 mm, minimal 0.001 mm) until the end of the experiment.

Question: With `COc1cc(C)c2[nH]ccc2c1SC1CCN(CC(F)F)CC1c1ccc(C(=O)O)cc1` (single isomer, unassigned) [Example 16-2] as the compound, how does the Cmax ([1]; in vivo) read?
Answer: 0.601 µg/mL

Question: And the AUC(0-t) at 24 h ([1]; in vivo, read-out: AUC0-24)?
Answer: 5.75 µg·h/mL

Question: And the IC50 [2]?
Answer: 0.0124 µM

Question: What about the “Arthritis score AUC” value [3] of the same compound?
Answer: 7.25

Question: With `COc1cc(C)c2[nH]ccc2c1O[C@@H]1CCN(CC(F)F)C[C@H]1c1ccc(C(=O)O)cc1` [Example 13a-2, 4-((3R,4R)-1-(2,2-difluoroethyl)-4-((5-methoxy-7-methyl-1H-indol-4-yl)oxy)piperidin-3-yl)benzoic acid] as the compound, how does the Cmax [1] read?
Answer: 1.29 µg/mL

Question: And the AUC(0-t) ([1]; read-out: AUC0-24)?
Answer: 9.68 µg·h/mL

Question: What about the IC50 [2] of the same compound?
Answer: 0.006 µM

Question: And the Arthritis score ([5]; Day0)?
Answer: 0.00

Question: And the “Thickness of foot pads (mm)” value ([5]; Day0)?
Answer: 1.60 mm

Question: What about the Arthritis score ([5]; Day3) of the same compound?
Answer: 0.00

Question: And the “Thickness of foot pads (mm)” value ([5]; Day3)?
Answer: 1.607 mm

Question: And the Arthritis score ([5]; Day5)?
Answer: 1.17

Question: And the “Thickness of foot pads (mm)” value ([5]; Day5)?
Answer: 1.632 mm

Question: What about the Arthritis score ([5]; Day7) of the same compound?
Answer: 1.83

Question: What about the “Thickness of foot pads (mm)” value ([5]; Day7) of the same compound?
Answer: 1.665 mm

Question: What about the Arthritis score ([5]; Day10) of the same compound?
Answer: 1.50

Question: And the “Thickness of foot pads (mm)” value ([5]; Day10)?
Answer: 1.666 mm

Question: What about the Arthritis score ([5]; Day12) of the same compound?
Answer: 1.33

Question: And the “Thickness of foot pads (mm)” value ([5]; Day12)?
Answer: 1.661 mm

Question: What about the Arthritis score ([5]; Day14) of the same compound?
Answer: 1.50

Question: What about the “Thickness of foot pads (mm)” value ([5]; Day14) of the same compound?
Answer: 1.669 mm

Question: And the IC50 [4]?
Answer: 0.0541 µM

Question: Which Cmax [1] does the source give for `COc1cc(C)c2[nH]ccc2c1O[C@@H]1CCN(CC(F)(F)F)C[C@H]1c1ccc(C(=O)O)cc1` [Example 14a-2, 4-((3R,4R)-4-((5-methoxy-7-methyl-1H-indol-4-yl)oxy)-1-(2,2,2-trifluoroethyl)piperidin-3-yl)benzoic acid] here?
Answer: 1.37 µg/mL

Question: What about the AUC(0-t) ([1]; read-out: AUC0-24) of the same compound?
Answer: 6.69 µg·h/mL

Question: What about the IC50 [2] of the same compound?
Answer: 0.0102 µM

Question: What about the “Arthritis score AUC” value [3] of the same compound?
Answer: 3.00

Question: And the IC50 [4]?
Answer: 0.0593 µM

Reference: patent publication EP4650351A1, “INHIBITOR OF COMPLEMENT FACTOR B” (Nanjing Chia Tai Tianqing Pharmaceutical Co., Ltd., priority 2023, dated 2024)
